Measurements published in US9988373B2, “Nitrogen-containing six-membered cyclic derivatives and pharmaceutical composition comprising the same” (SHIONOGI & CO., LTD., priority 2013, dated 2018).

Molecular target: T1, human P2X7 receptor (Homo sapiens, UniProt Q99572, R270H)
T1 construct: expressed in transfected cells
T1 sequence (Q99572 1-595 R270H): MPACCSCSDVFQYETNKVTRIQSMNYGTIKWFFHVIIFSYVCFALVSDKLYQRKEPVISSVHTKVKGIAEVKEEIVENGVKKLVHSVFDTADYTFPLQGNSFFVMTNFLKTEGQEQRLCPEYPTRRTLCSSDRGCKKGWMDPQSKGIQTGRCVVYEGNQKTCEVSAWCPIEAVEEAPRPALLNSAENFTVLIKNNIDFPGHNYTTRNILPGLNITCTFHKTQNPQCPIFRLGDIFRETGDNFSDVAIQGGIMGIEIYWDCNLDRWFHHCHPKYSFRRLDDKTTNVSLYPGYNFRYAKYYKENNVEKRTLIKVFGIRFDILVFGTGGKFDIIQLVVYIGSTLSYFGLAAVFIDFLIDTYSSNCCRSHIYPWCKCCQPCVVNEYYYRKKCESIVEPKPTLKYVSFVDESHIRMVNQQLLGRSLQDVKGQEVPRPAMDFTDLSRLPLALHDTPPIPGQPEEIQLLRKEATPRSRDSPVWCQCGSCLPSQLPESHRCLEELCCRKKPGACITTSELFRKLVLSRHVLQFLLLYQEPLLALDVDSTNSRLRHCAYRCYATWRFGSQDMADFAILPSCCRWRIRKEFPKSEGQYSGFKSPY
Experiment: Evaluation of a human P2X7 receptor inhibitory activity (Yo-Pro uptake, BzATP stimulation, FLIPR TETRA)
Assay type: cell-based
Conditions: antagonistic activity for the human P2X7 receptor, 1321N1 cell transfected with the human P2X7 receptor gene, Yo-Pro fluorescence
Method: Test Example 1 Evaluation of a Human P2X7 Receptor Inhibitory Activity
Stably expressing cell line (1321N1 cell transfected with the human P2X7 receptor gene (GenBank accession number NM_002562.5 including T606C and G952A SNP)) was used. The cells were seeded in a 384-well microtiter plate at a concentration of 8000 cells/well and cultured in the medium (10% fetal bovine serum, 25 mM HEPES, 1% penicillin and streptomycin in DMEM) for one day at 37° C. under 5% carbon dioxide atmosphere. After replacing with 20 μL of the HBSS buffer (20 mM HEPES. 55.6 mM D-glucose, 1×HBSS(−), pH 7.4-7.5), 15 μL of 17.3 μM Yo-Pro solution in the HBSS buffer was added. The plate was placed in high-throughput cellular screening system FLIPR TETRA (Molecullar Devices, LLC.) and 15 μL of 130 μM BzATP solution in the HBSS buffer was added. Measurement of fluorescence intensity by FLIPR TETRA was started. After eight minutes, 15 μL of DMSO solutions containing different concentrations of the compound of the present invention as prepared by dilution with the HBSS buffer were dispensed to each well through the built-in automatic dispenser, and the measurement of fluorescence intensity was continued for 20 minutes. The maximum fluorescence intensity without the compound of the present invention is calculated as 0% inhibition and the maximum fluorescence intensity when the reference compound was added is calculated as 100% inhibition. Changing values of fluorescence intensity by the compound of the present invention were calculated by difference between maximum and minimum fluorescence intensity for 20 minutes. Inhibition ratios (%) were calculated from the following equation:
[formula] IC50 was calculated using logistic approximation.

SMILES | IC50 [nM] | IC50 (class symbols) [nM]
O=c1cc(-c2cccc(C(F)(F)F)c2Cl)n(Cc2ccccc2F)cc1Br [Compound I-001] | 67 | 
N#Cc1cn(Cc2ccccc2F)c(-c2cccc(C(F)(F)F)c2Cl)cc1=O [Compound I-002] |  | < 50
N#Cc1cccc(Cn2cc(N3CCCC3)c(=O)cc2-c2cccc(C(F)(F)F)c2Cl)c1 [Compound I-004] |  | 500 to 1000
N#Cc1cccc(Cn2cc(N)c(=O)cc2-c2cccc(C(F)(F)F)c2Cl)c1 [Compound I-006] |  | 500 to 1000
COc1cn(Cc2cccc(C#N)c2)c(-c2cccc(C(F)(F)F)c2Cl)cc1=O [Compound I-007] |  | 100 to 500
O=c1cc(-c2cccc(C(F)(F)F)c2Cl)n(Cc2ccccc2)cc1Br [Compound I-008] |  | 100 to 500
O=c1cc(-c2cccc(C(F)(F)F)c2Cl)n(Cc2cccc(F)c2)cc1Br [Compound I-010] |  | 100 to 500
CC(=O)c1cn(Cc2ccccc2)c(-c2cccc(C(F)(F)F)c2Cl)cc1=O [Compound I-014] |  | 100 to 500
COc1cn(Cc2ccccc2)c(-c2cccc(C(F)(F)F)c2Cl)cc1=O [Compound I-015] | 44 | 
O=c1ccn(Cc2ccc(F)cc2)c(-c2cccc(C(F)(F)F)c2Cl)c1 [Compound I-017] |  | 500 to 1000
Cc1ccccc1Cn1ccc(=O)cc1-c1cccc(C(F)(F)F)c1Cl [Compound I-018] |  | 50 to 100
O=c1ccn(Cc2ccccc2F)c(-c2cccc(C(F)(F)F)c2Cl)c1 [Compound I-022] |  | 100 to 500
N#Cc1ccccc1Cn1ccc(=O)cc1-c1cccc(C(F)(F)F)c1Cl [Compound I-023] |  | 500 to 1000
N#Cc1ccc(Cn2ccc(=O)cc2-c2cccc(C(F)(F)F)c2Cl)cc1 [Compound I-025] |  | 1000 to 10000
Cc1cccc(Cn2ccc(=O)cc2-c2cccc(C(F)(F)F)c2Cl)c1 [Compound I-028] |  | 100 to 500
Cc1ccc(Cn2ccc(=O)cc2-c2cccc(C(F)(F)F)c2Cl)cc1 [Compound I-029] |  | 1000 to 10000
O=c1ccn(Cc2ccccc2OC(F)(F)F)c(-c2cccc(C(F)(F)F)c2Cl)c1 [Compound I-030] |  | 500 to 1000

SMILES | IC50 [nM] | IC50 (class symbols) [nM]
O=c1ccn(Cc2cccc(OC(F)(F)F)c2)c(-c2cccc(C(F)(F)F)c2Cl)c1 [Compound I-031] |  | 1000 to 10000
COc1cccc(Cn2ccc(=O)cc2-c2cccc(C(F)(F)F)c2Cl)n1 [Compound I-032] |  | 500 to 1000
O=c1ccn(Cc2cccc(=O)[nH]2)c(-c2cccc(C(F)(F)F)c2Cl)c1 [Compound I-034] |  | 500 to 1000
O=c1ccn(Cc2cccc(Oc3ccccc3)c2)c(-c2cccc(C(F)(F)F)c2Cl)c1 [Compound I-036] |  | 500 to 1000
COc1ccc(-c2noc(Cn3ccc(=O)cc3-c3cccc(C(F)(F)F)c3Cl)n2)cc1 [Compound I-038] |  | 1000 to 10000
COc1ccc(Cn2ccc(=O)cc2-c2cccc(C(F)(F)F)c2Cl)cc1 [Compound I-040] |  | 1000 to 10000
O=c1ccn(Cc2ccc(Cl)cc2)c(-c2cccc(C(F)(F)F)c2Cl)c1 [Compound I-041] |  | 1000 to 10000
O=c1ccn(Cc2nc3ccccc3s2)c(-c2cccc(C(F)(F)F)c2Cl)c1 [Compound I-042] |  | 1000 to 10000
O=c1ccn(Cc2ccc(-c3ccccc3)cc2)c(-c2cccc(C(F)(F)F)c2Cl)c1 [Compound I-043] |  | 1000 to 10000
O=c1ccn(Cc2cccc3cccnc23)c(-c2cccc(C(F)(F)F)c2Cl)c1 [Compound I-044] |  | 500 to 1000
O=c1ccn(Cc2ccccc2OCc2ccccc2)c(-c2cccc(C(F)(F)F)c2Cl)c1 [Compound I-049] |  | 100 to 500
O=c1ccn(Cc2cccc(C(F)(F)F)c2)c(-c2cccc(C(F)(F)F)c2Cl)c1 [Compound I-050] |  | 1000 to 10000
O=c1ccn(Cc2ccc3ccccc3c2)c(-c2cccc(C(F)(F)F)c2Cl)c1 [Compound I-051] |  | 500 to 1000
O=c1ccn(Cc2cccnc2)c(-c2cccc(C(F)(F)F)c2Cl)c1 [Compound I-053] |  | 500 to 1000
O=c1ccn(Cc2cccc(Cl)c2)c(-c2cccc(C(F)(F)F)c2Cl)c1 [Compound I-055] |  | 100 to 500
O=c1ccn(Cc2ccccn2)c(-c2cccc(C(F)(F)F)c2Cl)c1 [Compound I-058] |  | 500 to 1000
O=c1ccn(Cc2ccccc2Cl)c(-c2cccc(C(F)(F)F)c2Cl)c1 [Compound I-059] |  | 100 to 500

Second part, the molecule after the results:

IC50 [nM] | IC50 (class symbols) [nM] | SMILES
 | 100 to 500 | N#Cc1cccc(Cn2cc(Br)c(=O)cc2-c2cccc(C(F)(F)F)c2Cl)c1 [Compound I-003]
 | 500 to 1000 | CC(=O)c1cn(Cc2cccc(C#N)c2)c(-c2cccc(C(F)(F)F)c2Cl)cc1=O [Compound I-005]
 | 100 to 500 | COc1cccc(Cn2cc(Br)c(=O)cc2-c2cccc(C(F)(F)F)c2Cl)c1 [Compound I-009]
 | 100 to 500 | O=c1cc(-c2cccc(C(F)(F)F)c2Cl)n(Cc2cccc(Cl)c2)cc1Br [Compound I-011]
 | 500 to 1000 | CC(C)NC(=O)Nc1cccc(Cn2cc(Br)c(=O)cc2-c2cccc(C(F)(F)F)c2Cl)c1 [Compound I-012]
 | 100 to 500 | N#Cc1cccc(Cn2cc(Cl)c(=O)cc2-c2cccc(C(F)(F)F)c2Cl)c1 [Compound I-013]
 | 100 to 500 | Cc1ccccc1Cn1ccc(=O)cc1-c1cccc(Cl)c1Cl [Compound I-016]
 | 100 to 500 | O=c1ccn(Cc2ccccc2)c(-c2cccc(C(F)(F)F)c2Cl)c1 [Compound I-019]
810 |  | O=c1ccn(Cc2ccc(F)cc2)c(-c2cccc(Cl)c2Cl)c1 [Compound I-020]
 | 500 to 1000 | O=c1ccn(Cc2ccccc2)c(-c2cccc(Cl)c2Cl)c1 [Compound I-021]
 | 500 to 1000 | N#Cc1cccc(Cn2ccc(=O)cc2-c2cccc(C(F)(F)F)c2Cl)c1 [Compound I-024]
 | 1000 to 10000 | O=c1ccn(Cc2ccccc2S(=O)(=O)N2CCOCC2)c(-c2cccc(C(F)(F)F)c2Cl)c1 [Compound I-026]
 | 500 to 1000 | O=c1ccn(Cc2cccc(F)c2)c(-c2cccc(C(F)(F)F)c2Cl)c1 [Compound I-027]
 | 100 to 500 | O=c1ccn(Cc2ccccc2C(F)(F)F)c(-c2cccc(C(F)(F)F)c2Cl)c1 [Compound I-033]
 | 100 to 500 | O=c1ccn(Cc2cccc(CO)c2)c(-c2cccc(C(F)(F)F)c2Cl)c1 [Compound I-035]
 | 100 to 500 | CC(C)NC(=O)Nc1cccc(Cn2ccc(=O)cc2-c2cccc(C(F)(F)F)c2Cl)c1 [Compound I-037]
 | 1000 to 10000 | O=c1ccn(Cc2ccccc2-c2ccccc2)c(-c2cccc(C(F)(F)F)c2Cl)c1 [Compound I-039]
 | 1000 to 10000 | O=c1ccn(Cc2ccccc2-c2cccs2)c(-c2cccc(C(F)(F)F)c2Cl)c1 [Compound I-045]
 | 100 to 500 | O=c1ccn(Cc2cccc3c2OCCCO3)c(-c2cccc(C(F)(F)F)c2Cl)c1 [Compound I-046]
 | 1000 to 10000 | O=c1ccn(Cc2cccc(-c3cccs3)c2)c(-c2cccc(C(F)(F)F)c2Cl)c1 [Compound I-047]
110 |  | O=c1ccn(Cc2cccc3ccsc23)c(-c2cccc(C(F)(F)F)c2Cl)c1 [Compound I-048]
 | 1000 to 10000 | O=c1ccn(Cc2ccc(C(F)(F)F)cc2)c(-c2cccc(C(F)(F)F)c2Cl)c1 [Compound I-052]
 | 100 to 500 | O=c1ccn(Cc2c(F)cccc2F)c(-c2cccc(C(F)(F)F)c2Cl)c1 [Compound I-054]
 | 1000 to 10000 | O=c1ccn(Cc2ccccc2CS(=O)(=O)c2ccccc2)c(-c2cccc(C(F)(F)F)c2Cl)c1 [Compound I-056]
 | 100 to 500 | COc1cccc(Cn2ccc(=O)cc2-c2cccc(C(F)(F)F)c2Cl)c1 [Compound I-057]
